Results taken from patent US20250154141A1 (University of Florida Research Foundation, Incorporated, priority 2021, published 2025).
Read-outs that look alike come from different tables or passages of the source.

Columns and labels:
MOLT-4 = test: Cell viability assay (MTS) in MOLT-4 cells; format: cell-based; details: Homo sapiens, MOLT-4
Method: (§1) Acute lymphoblastic leukemia cells (MOLT-4 and RS4; 11) were incubated with increasing concentrations of Bcl-xL degraders for 48 h. Cell viability was measured by tetrazolium-based MTS assay.

RS4; 11 = test: Cell viability assay (MTS) in RS4; 11 cells; format: cell-based; details: Homo sapiens, RS4-11
Method: as §1

[1] = Table 2, 48 hr, MTS, read-out: Anti-Cancer Activity IC50 (48 hr) MOLT-4
[2] = Table 2, 48 hr, MTS, read-out: Anti-Cancer Activity IC50 (48 hr) RS4, 11

| Compound | IC50 (MOLT-4; [1]) [nM] | IC50 (RS4; 11; [2]) [nM] | also measured |
| --- | --- | --- | --- |
| Cc1ncsc1-c1ccc([C@H](C)NC(=O)[C@@H]2C[C@@H](O)CN2C(=O)[C@@H](NC(=O)CN(C)CC(=O)N2CCC(C3CCN(C[C@]4(C)CCC(c5ccc(Cl)cc5)=C(CN5CCN(c6ccc(C(=O)NS(=O)(=O)c7ccc(N[C@H](CCN8CCCOCC8)CSc8ccccc8)c(S(=O)(=O)C(F)(F)F)c7)cc6)CC5)C4)CC3)CC2)C(C)(C)C)cc1 [Compound 118] | – | – | IC50 (MOLT-4; Table 2A, 48 hr, MTS, read-out: Anti-Cancer Activity IC50 (48 hr) MOLT-4): < 20 nM; IC50 (RS4; 11; Table 2A, 48 hr, MTS, read-out: Anti-Cancer Activity IC50 (48 hr) RS4, 11): < 20 nM |
| CCN(CCO)CC[C@H](CSc1ccccc1)Nc1ccc(S(=O)(=O)NC(=O)c2ccc(N3CCN(CC4=C(c5ccc(Cl)cc5)CCC(C)(CN5CCN(C(=O)CCCCCCC(=O)N[C@H](C(=O)N6C[C@H](O)C[C@H]6C(=O)N[C@@H](C)c6ccc(-c7scnc7C)cc6)C(C)(C)C)CC5)C4)CC3)cc2)cc1[N+](=O)[O-] (stereo partly drawn) [Compound 43, (2S,4R)-1-((2S)-2-(8-(4-((4′-chloro-6-((4-(4-(((4-(((R)-4-(ethyl(2-hydroxyethyl)amino)-1-(phenylthio)butan-2-yl)amino)-3-nitrophenyl)sulfonyl)carbamoyl)phenyl)piperazin-1-yl)methyl)-4-methyl-2,3,4,5-tetrahydro-[1,1′-biphenyl]-4-yl)methyl)piperazin-1-yl)-8-oxooctanamido)-3,3-dimethylbutanoyl)-4-hydroxy-N—((S)-1-(4-(4-methylthiazol-5-yl)phenyl)ethyl)pyrrolidine-2-carboxamide] | 20 to 100 | < 20 | IC50 (MOLT-4; Table 5, 48 h, read-out: MOLT-4 48 h IC50): 78.5 nM; IC50 (RS4; 11; Table 5, 48 h, read-out: RS4 48 h IC50): 7.3 nM |
| COCC[C@H](CSc1ccccc1)Nc1ccc(S(=O)(=O)NC(=O)c2ccc(N3CCN(CC4=C(c5ccc(Cl)cc5)CCC(C)(CN5CCN(C(=O)CCCCCCC(=O)N[C@H](C(=O)N6C[C@H](O)C[C@H]6C(=O)N[C@@H](C)c6ccc(-c7scnc7C)cc6)C(C)(C)C)CC5)C4)CC3)cc2)cc1[N+](=O)[O-] (stereo partly drawn) [Compound 50, (2S,4R)-1-((2S)-2-(8-(4-((4′-chloro-6-((4-(4-(((4-(((R)-4-methoxy-1-(phenylthio)butan-2-yl)amino)-3-nitrophenyl)sulfonyl)carbamoyl)phenyl)piperazin-1-yl)methyl)-4-methyl-2,3,4,5-tetrahydro-[1,1′-biphenyl]-4-yl)methyl)piperazin-1-yl)-8-oxooctanamido)-3,3-dimethylbutanoyl)-4-hydroxy-N—((S)-1-(4-(4-methylthiazol-5-yl)phenyl)ethyl)pyrrolidine-2-carboxamide] | 500 to 10000 | 20 to 100 | – |
| Cc1ncsc1-c1ccc([C@H](C)NC(=O)[C@@H]2C[C@@H](O)CN2C(=O)[C@@H](NC(=O)CCCCCCC(=O)N2CCN(C[C@]3(C)CCC(c4ccc(Cl)cc4)=C(CN4CCN(c5ccc(C(=O)NS(=O)(=O)c6ccc(N[C@H](CCN7CCOC8(CCC8)C7)CSc7ccccc7)c(S(=O)(=O)C(F)(F)F)c6)cc5)CC4)C3)CC2)C(C)(C)C)cc1 [Compound 93] | 500 to 10000 | 500 to 10000 | – |
| Cc1ncsc1-c1ccc([C@H](C)NC(=O)[C@@H]2C[C@@H](O)CN2C(=O)[C@@H](NC(=O)CCCC(=O)N2CCN(CC3CCN(CC4(C)CCC(c5ccc(Cl)cc5)=C(CN5CCN(c6ccc(C(=O)NS(=O)(=O)c7ccc(N[C@H](CCN8CCOCC8)CSc8ccccc8)c(S(=O)(=O)C(F)(F)F)c7)cc6)CC5)C4)CC3)CC2)C(C)(C)C)cc1 (some centres unmarked) [Compound 18] | 20 to 100 | 20 to 100 | – |
| Cc1ncsc1-c1ccc([C@H](C)NC(=O)[C@@H]2C[C@@H](O)CN2C(=O)[C@@H](NC(=O)CCCCCNC(=O)c2ccc(N3CCN(CC4(C)CCC(c5ccc(Cl)cc5)=C(CN5CCN(c6ccc(C(=O)NS(=O)(=O)c7ccc(N[C@H](CCN8CCOCC8)CSc8ccccc8)c(S(=O)(=O)C(F)(F)F)c7)cc6)CC5)C4)CC3)cn2)C(C)(C)C)cc1 (some centres unmarked) [Compound 5] | 20 to 100 | 100 to 500 | – |
| Cc1ncsc1-c1ccc([C@H](C)NC(=O)[C@@H]2C[C@@H](O)CN2C(=O)[C@@H](NC(=O)CCCCCCC(=O)N2CCN(CC3(C)CCC(c4ccc(Cl)cc4)=C(CN4CCN(c5ccc(C(=O)NS(=O)(=O)c6ccc(N[C@H](CCN(C)C)CSc7ccccc7)c(S(=O)(=O)C(F)(F)F)c6)cc5)CC4)C3)CC2)C(C)(C)C)cc1 (some centres unmarked) [Compound 61] | < 20 | < 20 | – |
| Cc1ncsc1-c1ccc([C@H](C)NC(=O)[C@@H]2C[C@@H](O)CN2C(=O)[C@@H](NC(=O)CCCCCCCCC(=O)N2CCN(CCC3(C)CCC(c4ccc(Cl)cc4)=C(CN4CCN(c5ccc(C(=O)NS(=O)(=O)c6ccc(N[C@H](CCN7CCOCC7)CSc7ccccc7)c(S(=O)(=O)C(F)(F)F)c6)cc5)CC4)C3)CC2)C(C)(C)C)cc1 (stereo partly drawn) [Compound 30, (2S,4R)-1-((2S)-2-(10-(4-(2-(4′-chloro-4-methyl-6-((4-(4-(((4-(((R)-4-morpholino-1-(phenylthio)butan-2-yl)amino)-3-((trifluoromethyl)sulfonyl)phenyl)sulfonyl)carbamoyl)phenyl)piperazin-1-yl)methyl)-2,3,4,5-tetrahydro-[1,1′-biphenyl]-4-yl)ethyl)piperazin-1-yl)-10-oxodecanamido)-3,3-dimethylbutanoyl)-4-hydroxy-N—((S)-1-(4-(4-methylthiazol-5-yl)phenyl)ethyl)pyrrolidine-2-carboxamide] | 100 to 500 | 20 to 100 | – |
| Cc1ncsc1-c1ccc([C@H](C)NC(=O)[C@@H]2C[C@@H](O)CN2C(=O)[C@@H](NC(=O)CC(=O)N2CCN(CC3CCN(CC4(C)CCC(c5ccc(Cl)cc5)=C(CN5CCN(c6ccc(C(=O)NS(=O)(=O)c7ccc(N[C@H](CCN8CCOCC8)CSc8ccccc8)c(S(=O)(=O)C(F)(F)F)c7)cc6)CC5)C4)CC3)CC2)C(C)(C)C)cc1 (some centres unmarked) [Compound 17] | 100 to 500 | 20 to 100 | – |
| Cc1ncsc1-c1ccc([C@H](C)NC(=O)[C@@H]2C[C@@H](O)CN2C(=O)[C@@H](NC(=O)CCCNC(=O)c2ccc(N3CCN(CCN(C)CC4(C)CCC(c5ccc(Cl)cc5)=C(CN5CCN(c6ccc(C(=O)NS(=O)(=O)c7ccc(N[C@H](CCN8CCOCC8)CSc8ccccc8)c(S(=O)(=O)C(F)(F)F)c7)cc6)CC5)C4)CC3)cc2)C(C)(C)C)cc1 (some centres unmarked) [Compound 14] | 20 to 100 | 20 to 100 | – |
| Cc1ncsc1-c1ccc([C@H](C)NC(=O)[C@@H]2C[C@@H](O)CN2C(=O)[C@@H](NC(=O)CCCCCCS(=O)(=O)N2CCN(C[C@]3(C)CCC(c4ccc(Cl)cc4)=C(CN4CCN(c5ccc(C(=O)NS(=O)(=O)c6ccc(N[C@H](CCN7CCCOCC7)CSc7ccccc7)c(S(=O)(=O)C(F)(F)F)c6)cc5)CC4)C3)CC2)C(C)(C)C)cc1 [Compound 96, (2S,4R)-1-((S)-2-(7-((4-(((R)-6-((4-(4-(((4-(((R)-4-(1,4-oxazepan-4-yl)-1-(phenylthio)butan-2-yl)amino)-3-((trifluoromethyl)sulfonyl)phenyl)sulfonyl)carbamoyl)phenyl)piperazin-1-yl)methyl)-4′-chloro-4-methyl-2,3,4,5-tetrahydro-[1,1′-biphenyl]-4-yl)methyl)piperazin-1-yl)sulfonyl)heptanamido)-3,3-dimethylbutanoyl)-4-hydroxy-N—((S)-1-(4-(4-methylthiazol-5-yl)phenyl)ethyl)pyrrolidine-2-carboxamide] | < 20 | < 20 | – |
| Cc1ncsc1-c1ccc([C@H](C)NC(=O)[C@@H]2C[C@@H](O)CN2C(=O)[C@@H](NC(=O)CCCCCNC(=O)c2ccc(N3CCN(C[C@]4(C)CCC(c5ccc(Cl)cc5)=C(CN5CCN(c6ccc(C(=O)NS(=O)(=O)c7ccc(N[C@H](CCN8C[C@H]9C[C@@H]8CO9)CSc8ccccc8)c(S(=O)(=O)C(F)(F)F)c7)cc6)CC5)C4)CC3)nc2)C(C)(C)C)cc1 [Compound 72] | < 20 | < 20 | IC50 (MOLT-4; Table 4, 48 h, read-out: MOLT-4 48 h IC50): 4.4 nM; IC50 (RS4; 11; Table 4, 48 h, read-out: RS4 48 h IC50): 7 nM |
| Cc1ncsc1-c1ccc([C@H](C)NC(=O)[C@@H]2C[C@@H](O)CN2C(=O)[C@@H](NC(=O)CCCCCCC(=O)N2CCN(CC3(C)CCC(c4ccc(Cl)cc4)=C(CN4CCN(c5ccc(C(=O)NS(=O)(=O)c6ccc(N[C@H](CCN(CCO)C7CC7)CSc7ccccc7)c([N+](=O)[O-])c6)cc5)CC4)C3)CC2)C(C)(C)C)cc1 (stereo partly drawn) [Compound 44, (2S,4R)-1-((2S)-2-(8-(4-((4′-chloro-6-((4-(4-(((4-(((R)-4-(cyclopropyl(2-hydroxyethyl)amino)-1-(phenylthio)butan-2-yl)amino)-3-nitrophenyl)sulfonyl)carbamoyl)phenyl)piperazin-1-yl)methyl)-4-methyl-2,3,4,5-tetrahydro-[1,1′-biphenyl]-4-yl)methyl)piperazin-1-yl)-8-oxooctanamido)-3,3-dimethylbutanoyl)-4-hydroxy-N—((S)-1-(4-(4-methylthiazol-5-yl)phenyl)ethyl)pyrrolidine-2-carboxamide] | 100 to 500 | 20 to 100 | – |
| Cc1ncsc1-c1ccc([C@H](C)NC(=O)[C@@H]2C[C@@H](O)CN2C(=O)[C@@H](NC(=O)CNC(=O)c2ccc(N3CCN(CC4(C)CCC(c5ccc(Cl)cc5)=C(CN5CCN(c6ccc(C(=O)NS(=O)(=O)c7ccc(N[C@H](CCN8CCOCC8)CSc8ccccc8)c(S(=O)(=O)C(F)(F)F)c7)cc6)CC5)C4)CC3)cc2)C(C)(C)C)cc1 (stereo partly drawn) [Compound 10, (2S,4R)-1-((2S)-2-(2-(4-(4-((4′-chloro-4-methyl-6-((4-(4-(((4-(((R)-4-morpholino-1-(phenylthio)butan-2-yl)amino)-3-((trifluoromethyl)sulfonyl)phenyl)sulfonyl)carbamoyl)phenyl)piperazin-1-yl)methyl)-2,3,4,5-tetrahydro-[1,1′-biphenyl]-4-yl)methyl)piperazin-1-yl)benzamido)acetamido)-3,3-dimethylbutanoyl)-4-hydroxy-N—((S)-1-(4-(4-methylthiazol-5-yl)phenyl)ethyl)pyrrolidine-2-carboxamide] | 100 to 500 | 100 to 500 | – |
